Laboratory results taken from the supplement of paper PMC10307832.

Tests used:
Assay in all cases: relative viability (nuclei count vs DMSO), 5 days (fraction); higher = more cells survive
[1] = compound: CC1=CSC(=NC2CCCCC2)N1/N=C/C3=C(C(=C(C=C3)O)O)O [MIM1]
Summary of the method: (§1)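 Lung cancer cell lines in 1536-well plates were kept overnight at 37 °C, then pinned with five library-drug doses (not always all listed) spaced by √10 on vehicle-anchored plates. After 5 days without medium change, cells were fixed, permeabilised and Hoechst-stained in one step, imaged at 4×, and nuclei were counted with MetaXpress. Viability is treated-well nuclei divided by vehicle-well nuclei, taken as the median over plates. Plates passed only with control CV below 25% and at least one doubling.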

[2] = compound: CCNC(=O)c1noc(-c2cc(C(C)C)c(O)cc2O)c1-c1ccc(CN2CCOCC2)cc1 [Luminespib]
Summary of the method: as §1

[3] = compound: CN1CCN(CCOc2cc(OC3CCOCC3)c3c(Nc4c(Cl)ccc5c4OCO5)ncnc3c2)CC1 [Saracatinib]
Summary of the method: as §1

[4] = compound: Cc1cn(-c2cc(NC(=O)c3ccc(C)c(Nc4nccc(-c5cccnc5)n4)c3)cc(C(F)(F)F)c2)cn1 [Nilotinib]
Summary of the method: as §1

[5] = compound: Nc1cccc2c1CN(C1CCC(=O)NC1=O)C2=O [Lenalidomide]
Summary of the method: as §1

Cell Line	relative viability ([1]; 0.2 µM)	relative viability ([1]; 0.6325 µM)	relative viability ([1]; 2 µM)	relative viability ([1]; 6.325 µM)	relative viability ([1]; 20 µM)	relative viability ([2]; 0.002 µM)	relative viability ([2]; 0.006325 µM)	relative viability ([2]; 0.01 µM, anchor plate)	relative viability ([2]; 0.02 µM)	relative viability ([2]; 0.06325 µM)	relative viability ([2]; 0.2 µM)	relative viability ([3]; 0.02 µM)	relative viability ([3]; 0.2 µM)	relative viability ([3]; 0.6325 µM)	relative viability ([3]; 2 µM)	relative viability ([4]; 0.001 µM)	relative viability ([4]; 0.003162 µM)	relative viability ([4]; 0.01 µM)	relative viability ([4]; 0.03162 µM)	relative viability ([4]; 0.1 µM)	relative viability ([5]; 0.253 µM)	relative viability ([5]; 0.8 µM)	relative viability ([5]; 2.53 µM)	relative viability ([5]; 8 µM)
NCI-H838	0.967	0.959	0.786	0.78	0.372	0.983	0.92	0.298	0.554	0.177	0.186	0.96	0.897	0.898	0.772	0.924	1.02	1.06	0.863	0.992	0.969	0.879	1.07	0.823
NCI-H1299	0.983	0.992	0.994	1.01	0.776	1.03	0.95	–	1.04	0.942	0.217	1.02	0.948	1.05	1	0.939	1.08	1.15	1.02	0.966	1.02	0.97	1.03	1.05
NCI-H1355	1	0.824	1.07	0.816	0.595	0.953	0.956	0.746	0.52	0.67	0.166	1.02	0.972	1.03	0.975	0.96	1.21	1.13	1.01	0.428	1	0.746	1.02	0.721
NCI-H1395	0.961	0.791	0.873	0.675	0.345	1.07	0.861	0.764	0.622	0.362	0.323	0.994	0.828	0.91	0.799	0.957	0.7	0.874	0.803	0.542	0.997	–	1.02	0.846
NCI-H1437	0.956	0.927	1	0.714	0.273	0.977	0.943	1.12	1.02	0.743	0.26	1.02	1.02	1.04	0.971	0.955	0.988	1.12	0.868	0.958	1.02	0.939	1.05	1.01
NCI-H1563	1.09	1.02	0.993	0.903	0.542	0.984	0.985	0.508	0.794	0.503	0.49	1.04	0.894	0.804	0.728	0.956	1.03	0.971	0.869	1.02	0.932	1.01	1.11	0.846
NCI-H1623	0.922	0.965	1.03	0.945	0.46	1.02	0.959	0.529	0.712	0.716	0.302	0.993	0.852	1.11	0.67	1.1	0.885	1.08	0.889	0.927	1.08	0.932	1.05	0.869
NCI-H1648	1.01	0.929	0.989	0.635	0.283	0.671	0.811	–	0.837	0.742	0.413	0.895	0.553	1.52	0.727	0.79	0.738	0.829	0.605	0.757	0.93	0.732	1.29	0.705
NCI-H1650	0.908	0.949	0.654	0.189	0.148	1.02	0.823	0.199	0.228	0.122	0.138	0.814	0.689	0.737	0.581	0.912	1.22	1.12	0.931	0.598	0.828	0.857	1.23	1.12
NCI-H1651	0.983	0.959	0.932	0.896	0.799	0.979	0.934	0.86	0.818	0.738	0.351	1	0.887	1.07	0.937	0.94	1.09	1.14	0.905	0.676	0.972	0.984	1.14	0.904
NCI-H1666	1.03	0.966	0.945	0.802	0.564	1.05	0.937	1.03	1.01	0.956	0.838	1.02	0.942	1.27	1.17	0.934	0.989	1.06	0.918	1.01	1.02	0.745	1.1	1.05
NCI-H1703	0.897	1	0.878	0.205	0.133	1.12	0.899	–	0.708	0.134	0.14	0.93	0.772	0.448	0.326	0.795	0.684	0.538	0.286	–	0.991	0.923	1.01	0.904
NCI-H1734	1.02	0.871	0.953	0.476	0.182	0.999	0.902	0.198	0.634	0.159	0.15	1.06	–	0.86	0.783	0.918	1.14	1.21	0.687	0.402	1.01	1.07	1.09	0.798
NCI-H1755	1	0.956	1.01	0.816	0.308	0.996	0.987	0.355	0.979	0.818	0.225	0.953	0.859	0.957	0.88	0.974	1.08	1.03	0.832	0.828	0.976	0.986	1.07	0.879
